According to paper PMC12675387, “Receptor interaction profiles of 4-alkoxy-2,6-dimethoxyphenethylamines (Ψ derivatives) and related amphetamines” (Frontiers in Pharmacology, 2025):

Tests used:
hα2A adrenergic receptor = target: T1, hα2A adrenergic receptor (Homo sapiens, UniProt P08913); assay: Radioligand binding, α2A adrenergic receptor ([3H]rauwolscine)
T1 sequence (P08913 1-465): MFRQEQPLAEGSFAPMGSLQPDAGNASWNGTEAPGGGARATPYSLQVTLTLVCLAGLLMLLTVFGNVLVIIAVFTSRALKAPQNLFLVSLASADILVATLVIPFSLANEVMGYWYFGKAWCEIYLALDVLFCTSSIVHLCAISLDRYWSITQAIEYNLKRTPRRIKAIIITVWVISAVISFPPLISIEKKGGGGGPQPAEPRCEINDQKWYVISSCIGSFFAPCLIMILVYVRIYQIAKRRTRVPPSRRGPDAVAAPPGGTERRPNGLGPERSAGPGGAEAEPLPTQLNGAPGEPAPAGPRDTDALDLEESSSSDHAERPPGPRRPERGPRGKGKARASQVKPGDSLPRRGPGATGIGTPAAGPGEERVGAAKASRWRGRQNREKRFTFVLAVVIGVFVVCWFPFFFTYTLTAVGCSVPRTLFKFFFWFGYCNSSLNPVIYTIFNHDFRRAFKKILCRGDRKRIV

h5-HT2A receptor = h5-HT2A receptor (Homo sapiens, UniProt P28223); assay: Radioligand binding, 5-HT2A receptor ([3H]ketanserin); conditions: for fold difference in 5-HT2A receptor affinity between Ψ derivative and its 2,4,5-trisubstituted counterpart: TMA-6 vs TMA-2, Ψ-2C-O-16 vs 2C-O-16, Ψ-MALM vs MALM: higher affinity of the Ψ derivative; for Selectivity (binding ratio) 5-HT2A/5-HT1A: preference for 5-HT2A (Ki 5-HT1A divided by Ki 5-HT2A); for Selectivity (binding ratio) 5-HT2A/5-HT2C: preference for 5-HT2A (Ki 5-HT2C divided by Ki 5-HT2A); for fold increase in 5-HT2A affinity over the 4-methoxy analog: pairs Ψ-2C-O-1/Ψ-2C-O-35 and TMA-6/Ψ-DODFMO
Sequence of h5-HT2A receptor (P28223 whole entry): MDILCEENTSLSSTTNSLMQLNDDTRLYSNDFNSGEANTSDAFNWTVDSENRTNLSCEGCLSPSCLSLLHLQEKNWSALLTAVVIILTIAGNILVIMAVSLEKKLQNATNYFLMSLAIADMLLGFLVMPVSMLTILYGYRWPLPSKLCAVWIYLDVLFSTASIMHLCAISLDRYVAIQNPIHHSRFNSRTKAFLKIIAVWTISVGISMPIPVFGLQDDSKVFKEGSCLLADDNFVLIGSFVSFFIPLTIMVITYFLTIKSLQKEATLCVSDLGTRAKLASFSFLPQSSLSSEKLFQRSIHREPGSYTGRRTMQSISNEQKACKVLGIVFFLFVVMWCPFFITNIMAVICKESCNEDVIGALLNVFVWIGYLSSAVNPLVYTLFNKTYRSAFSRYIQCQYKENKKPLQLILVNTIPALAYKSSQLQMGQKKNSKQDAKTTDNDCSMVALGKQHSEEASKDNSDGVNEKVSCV

human 5-HT2A receptor = target: T2, human 5-HT2A receptor (Homo sapiens, UniProt P28223); assay: Activation potency and efficacy at the 5-HT2A receptor (FLIPR calcium, NIH-3T3 cells); type: cell-based; conditions: for Emax: NIH3T3, relative to 5-HT (100%), read-out: h5-HT2A activation efficacy Emax ± SD
T2 construct: expressed in transfected cells; host or cells: NIH-3T3 mouse embryonic fibroblasts
T2 sequence (P28223 whole entry): as above
Experimental: The activation potency and efficacy at the 5-HT2A receptor were determined as previously described by [Luethi et al. (2018)]. In short, mouse embryonic fibroblasts (NIH-3T3 cells) stably transfected with the human 5-HT2A receptor were seeded in poly-D-lysine-coated 96 well plates at a density of 70,000 cells per 100 μL. Next, the cells were incubated in HEPES-Hank’s Balanced Salt Solution (HBSS) buffer (Gibco) for 1 h at 37 °C; the cells were then incubated with 100 μL of dye solution (fluorescence imaging plate reader [FLIPR] calcium 5 assay kit; Molecular Devices, Sunnyvale, CA, United States) per well for 1 h at 37 °C. The plate was then inserted into the FLIPR and 25 μL of the test compounds diluted in HEPES-HBSS buffer containing […] probenecid were added online. Increase of the fluorescence signal was measured and the activation potency (EC50) was calculated from the dose-response curves using nonlinear regression. The activation efficacy was calculated relative to 5-HT activity (defined as 100% activity).

hSERT = hSERT (Homo sapiens, UniProt P31645); assay: Radioligand binding, SERT ([3H]citalopram)
Sequence of hSERT (P31645 whole entry): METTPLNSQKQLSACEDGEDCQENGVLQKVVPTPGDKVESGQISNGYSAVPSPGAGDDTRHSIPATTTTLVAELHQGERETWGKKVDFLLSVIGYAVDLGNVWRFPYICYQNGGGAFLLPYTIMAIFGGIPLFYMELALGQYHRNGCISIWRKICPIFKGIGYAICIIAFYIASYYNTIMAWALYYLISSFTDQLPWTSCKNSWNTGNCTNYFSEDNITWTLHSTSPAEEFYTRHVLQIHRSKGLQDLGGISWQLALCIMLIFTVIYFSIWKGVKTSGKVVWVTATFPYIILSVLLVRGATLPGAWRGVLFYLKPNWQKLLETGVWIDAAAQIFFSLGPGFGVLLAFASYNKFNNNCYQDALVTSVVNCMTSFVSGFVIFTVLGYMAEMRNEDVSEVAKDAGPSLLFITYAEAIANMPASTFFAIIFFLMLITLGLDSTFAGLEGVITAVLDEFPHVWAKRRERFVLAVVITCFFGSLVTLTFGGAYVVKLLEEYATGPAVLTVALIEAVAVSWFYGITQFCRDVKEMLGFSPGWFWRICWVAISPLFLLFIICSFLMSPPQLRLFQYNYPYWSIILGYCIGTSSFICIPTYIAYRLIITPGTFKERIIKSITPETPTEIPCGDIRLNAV

human 5-HT2B receptor = target: T3, human 5-HT2B receptor (Homo sapiens, UniProt P41595); assay: Activation potency and efficacy at the 5-HT2B receptor (Fluo-4 calcium, HEK 293 cells); type: cell-based; conditions: for Emax: HEK293, relative to 5-HT (100%), read-out: h5-HT2B activation efficacy Emax ± SD
T3 construct: expressed in transfected cells; host or cells: HEK 293 cells
T3 sequence (P41595 whole entry): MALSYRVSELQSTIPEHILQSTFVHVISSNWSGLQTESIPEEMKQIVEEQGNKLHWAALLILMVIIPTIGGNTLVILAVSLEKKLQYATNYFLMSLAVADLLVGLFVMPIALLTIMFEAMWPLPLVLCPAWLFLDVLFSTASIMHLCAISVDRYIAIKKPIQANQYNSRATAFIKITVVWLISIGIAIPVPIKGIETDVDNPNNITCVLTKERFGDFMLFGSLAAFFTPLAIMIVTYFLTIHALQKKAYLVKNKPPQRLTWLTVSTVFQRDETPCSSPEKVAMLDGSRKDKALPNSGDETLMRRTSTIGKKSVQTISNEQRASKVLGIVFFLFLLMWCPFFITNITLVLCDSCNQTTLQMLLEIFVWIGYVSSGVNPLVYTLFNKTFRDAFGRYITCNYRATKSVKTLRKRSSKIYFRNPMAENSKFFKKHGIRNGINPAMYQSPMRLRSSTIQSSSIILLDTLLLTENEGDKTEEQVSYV
Experimental: The activation potency and efficacy at the 5-HT2B receptor were determined as previously described by [Luethi et al. (2018)]. In summary, HEK 293 cells stably transfected with the human 5-HT2B receptor were seeded in poly-D-lysine-coated 96 well plates at a density of 50,000 cells per well overnight at 37 °C in high glucose Dulbecco’s modified Eagle’s medium (DMEM; Invitrogen, Zug, Switzerland) supplemented with 10% fetal calf serum (non-dialyzed and heat-inactivated), 250 mg/L Geneticin, and 100 U/mL penicillin, and 100 μg/mL streptomycin (Gibco). The growth medium was removed by snap inversion and the cells were exposed to 100 μL calcium indication Fluo-4-solution (Molecular Probes, Eugene, OR, United States) for 45 min at 31 °C. Thereafter, the Fluo-4-solution was removed once again by snap inversion and was replaced with fresh 100 μL Fluo-4-solution. Next, the cells were washed with HBSS and 20 mM HEPES using the EMBLA cell washer and then exposed to the assay buffer (100 μL per well). Afterwards, 25 μL of test compounds diluted in assay buffer were added to the plate online. Dose–response curves were determined using nonlinear regression and EC50 values were calculated. The activation efficacy was calculated relative to the 5-HT activity (defined as 100%).

hNET = hNET (Homo sapiens, UniProt P23975); assay: Radioligand binding, NET (N-methyl-[3H]nisoxetine)
Sequence of hNET (P23975 whole entry): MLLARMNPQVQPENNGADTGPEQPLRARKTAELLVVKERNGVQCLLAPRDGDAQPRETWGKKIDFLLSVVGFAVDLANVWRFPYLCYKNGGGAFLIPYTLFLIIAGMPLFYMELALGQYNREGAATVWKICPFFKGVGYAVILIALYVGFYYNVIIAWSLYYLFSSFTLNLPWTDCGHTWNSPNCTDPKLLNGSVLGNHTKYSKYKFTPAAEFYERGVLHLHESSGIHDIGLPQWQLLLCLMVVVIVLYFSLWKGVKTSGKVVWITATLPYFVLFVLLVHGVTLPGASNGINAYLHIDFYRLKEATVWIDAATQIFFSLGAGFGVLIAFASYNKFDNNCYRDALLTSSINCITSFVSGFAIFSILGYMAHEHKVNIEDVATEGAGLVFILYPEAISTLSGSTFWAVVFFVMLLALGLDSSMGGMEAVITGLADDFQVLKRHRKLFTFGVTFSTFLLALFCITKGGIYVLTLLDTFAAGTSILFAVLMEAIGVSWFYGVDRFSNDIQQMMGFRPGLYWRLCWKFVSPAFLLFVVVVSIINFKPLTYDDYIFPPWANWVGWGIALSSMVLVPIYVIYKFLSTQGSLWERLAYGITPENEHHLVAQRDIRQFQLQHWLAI

hDAT = hDAT (Homo sapiens, UniProt Q01959); assay: Radioligand binding, DAT ([3H]WIN35,428)
Sequence of hDAT (Q01959 whole entry): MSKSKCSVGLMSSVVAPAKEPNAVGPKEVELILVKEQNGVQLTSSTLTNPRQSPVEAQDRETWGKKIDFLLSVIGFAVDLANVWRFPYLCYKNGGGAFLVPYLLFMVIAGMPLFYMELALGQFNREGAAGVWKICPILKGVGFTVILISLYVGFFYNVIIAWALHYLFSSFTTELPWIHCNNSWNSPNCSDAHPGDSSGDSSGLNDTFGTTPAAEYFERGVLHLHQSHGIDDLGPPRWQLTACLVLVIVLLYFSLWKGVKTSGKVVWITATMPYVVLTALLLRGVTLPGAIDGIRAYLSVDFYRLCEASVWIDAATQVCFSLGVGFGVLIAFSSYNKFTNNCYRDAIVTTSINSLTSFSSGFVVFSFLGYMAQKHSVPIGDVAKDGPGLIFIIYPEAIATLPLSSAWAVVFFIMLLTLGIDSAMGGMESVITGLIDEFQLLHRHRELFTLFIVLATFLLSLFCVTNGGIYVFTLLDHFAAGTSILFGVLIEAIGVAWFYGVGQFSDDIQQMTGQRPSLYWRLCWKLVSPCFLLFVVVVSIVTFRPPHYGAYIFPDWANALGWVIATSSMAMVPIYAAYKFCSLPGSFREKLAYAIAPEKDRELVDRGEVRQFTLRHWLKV

rTAAR1 = rTAAR1 (Rattus norvegicus, UniProt Q923Y9); assay: Radioligand binding, rat TAAR1 ([3H]RO5166017)
Sequence of rTAAR1 (Q923Y9 whole entry): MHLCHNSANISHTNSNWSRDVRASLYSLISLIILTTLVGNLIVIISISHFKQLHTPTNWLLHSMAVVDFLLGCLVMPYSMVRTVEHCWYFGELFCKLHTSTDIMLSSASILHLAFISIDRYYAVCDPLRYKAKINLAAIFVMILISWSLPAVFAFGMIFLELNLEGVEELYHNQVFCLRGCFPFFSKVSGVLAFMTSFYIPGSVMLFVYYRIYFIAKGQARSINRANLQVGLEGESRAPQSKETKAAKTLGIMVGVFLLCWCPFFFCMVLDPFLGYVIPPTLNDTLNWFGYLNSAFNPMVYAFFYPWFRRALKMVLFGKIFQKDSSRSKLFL

hD2 receptor = hD2 receptor (Homo sapiens, UniProt P14416); assay: Radioligand binding, dopaminergic D2 receptor ([3H]spiperone)
Sequence of hD2 receptor (P14416 whole entry): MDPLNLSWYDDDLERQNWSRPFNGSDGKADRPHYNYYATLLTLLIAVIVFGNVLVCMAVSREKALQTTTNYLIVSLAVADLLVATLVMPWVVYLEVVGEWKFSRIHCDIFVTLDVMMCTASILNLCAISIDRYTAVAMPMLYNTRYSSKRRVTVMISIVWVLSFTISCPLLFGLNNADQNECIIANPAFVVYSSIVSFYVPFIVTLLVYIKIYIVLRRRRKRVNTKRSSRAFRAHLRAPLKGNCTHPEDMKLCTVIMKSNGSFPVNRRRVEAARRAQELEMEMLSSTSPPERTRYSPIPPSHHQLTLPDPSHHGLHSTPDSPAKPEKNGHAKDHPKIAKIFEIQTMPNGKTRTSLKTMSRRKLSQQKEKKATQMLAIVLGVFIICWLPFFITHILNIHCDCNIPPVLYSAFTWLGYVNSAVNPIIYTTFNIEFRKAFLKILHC

hα1A adrenergic receptor = target: T4, hα1A adrenergic receptor (Homo sapiens, UniProt P35348); assay: Radioligand binding, α1A adrenergic receptor ([3H]prazosin); conditions: hα1A Ki ± SD
T4 sequence (P35348 1-466): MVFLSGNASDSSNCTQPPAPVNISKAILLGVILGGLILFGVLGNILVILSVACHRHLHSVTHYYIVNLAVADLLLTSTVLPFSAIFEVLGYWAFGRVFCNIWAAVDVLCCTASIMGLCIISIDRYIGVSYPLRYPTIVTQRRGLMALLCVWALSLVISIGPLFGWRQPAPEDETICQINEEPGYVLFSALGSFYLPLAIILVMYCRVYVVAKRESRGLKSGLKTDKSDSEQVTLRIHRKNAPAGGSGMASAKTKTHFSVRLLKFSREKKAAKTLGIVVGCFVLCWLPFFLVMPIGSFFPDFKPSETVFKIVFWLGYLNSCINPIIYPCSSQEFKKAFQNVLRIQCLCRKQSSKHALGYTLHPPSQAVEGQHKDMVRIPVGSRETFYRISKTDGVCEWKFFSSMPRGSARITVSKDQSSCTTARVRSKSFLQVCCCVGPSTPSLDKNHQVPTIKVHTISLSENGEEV

| Structure (SMILES) | Ki (hα2A adrenergic receptor) [µM] | Ki (h5-HT2A receptor) [µM] | fold difference in 5-HT2A receptor affinity between Ψ derivative and its 2,4,5-trisubstituted counterpart (h5-HT2A receptor) | Selectivity (binding ratio) 5-HT2A/5-HT1A (h5-HT2A receptor) | Selectivity (binding ratio) 5-HT2A/5-HT2C (h5-HT2A receptor) | EC50 (human 5-HT2A receptor) [µM] | Emax (human 5-HT2A receptor) [%] | Ki (hSERT; hSERT Ki ± SD, [3H]citalopram) [µM] | EC50 (human 5-HT2B receptor) [µM] | Emax (human 5-HT2B receptor) [%] | Ki (hNET) [µM] | Ki (hDAT; hDAT Ki ± SD, [3H]WIN35,428) [µM] | Ki (rTAAR1) [µM] | Ki (hD2 receptor) [µM] | Ki (hα1A adrenergic receptor) [µM] | fold increase in 5-HT2A activation potency over non-fluorinated counterpart Ψ-2C-O-2 (human 5-HT2A receptor) [fold] | Ki (hSERT; SERT Ki, no binding observed) [µM] | Ki (hDAT; DAT Ki) [µM] | fold increase in 5-HT2A affinity over the 4-methoxy analog (h5-HT2A receptor) |
| --- | --- | --- | --- | --- | --- | --- | --- | --- | --- | --- | --- | --- | --- | --- | --- | --- | --- | --- | --- |
| COc1cc(OC)c(CC(C)N)c(OC)c1 (stereo not shown) [TMA-6, 2,4,6-trimethoxyamphetamine] | 3.1 | 0.27 ± 0.018 | 2–5 fold | >21 | 6.7 | 0.07 ± 0.032 | 61 ± 12 | > 7.5 | 0.15 ± 0.02 | 59 ± 3 | > 8.8 | > 8.5 | 0.18 ± 0.02 | > 6 | > 8.8 |  |  |  |  |
| COc1cc(OC)c(CCN)c(OC)c1 [Ψ-2C-O-1, 2,4,6-trimethoxyphenethylamine] | 0.78 ± 0.07 | 0.3 ± 0.04 |  | 3.2 | 4 | 0.11 ± 0.02 | 84 ± 13 | > 7.5 | 0.33 ± 0.25 | 22 ± 8 | > 8.8 | > 8.5 | 0.057 ± 0.012 | > 6 | > 8.8 |  |  |  |  |
| CCOc1cc(OC)c(CCN)c(OC)c1 [Ψ-2C-O-2, 2,6-dimethoxy-4-ethoxyphenethylamine] | 0.67 ± 0.06 | 0.4 ± 0.28 |  | 1.8 | 3.8 | 0.099 ± 0.008 | 53 ± 4 | > 7.5 | 2.1 | 27 ± 8 | > 8.8 | > 8.5 |  | > 6 | 3.3 |  |  |  |  |
| C=C(C)COc1cc(OC)c(CCN)c(OC)c1 [Ψ-2C-O-3, 2,6-dimethoxy-4-methallyloxyphenethylamine] | 0.28 ± 0.03 | 0.032 ± 0.008 |  | 32 | 6.6 | 0.2 ± 0.02 | 23 ± 10 | > 7.5 | 0.31 ± 0.24 | 17 ± 4 | > 8.8 | 7.8 | 0.0064 ± 0.0011 | > 6 | 0.99 ± 0.02 |  |  |  |  |
| C=CCOc1cc(OC)c(CCN)c(OC)c1 [Ψ-2C-O-16, 4-allyloxy-2,6-dimethoxyphenethylamine] | 0.31 ± 0.02 | 0.054 ± 0.004 | 2–5 fold | 17 | 9.3 | 0.039 ± 0.019 | 49 ± 20 | > 7.5 | 0.091 ± 0.031 | 27 ± 8 | > 8.8 | > 8.5 | 0.012 | > 6 | 0.67 ± 0.06 |  |  |  |  |
| COc1cc(OCCF)cc(OC)c1CCN [Ψ-2C-O-21, 2,6-dimethoxy-4-(2-fluoroethoxy)phenethylamine] |  | 0.97 ± 0.19 |  | 1.6 | 3.6 | 0.032 ± 0.002 | 55 ± 14 | > 7.5 | > 10 |  | > 8.8 | > 8.5 | 0.019 ± 0.001 | > 6 | 4.6 | 3 |  |  |  |
| COc1cc(OCC(F)F)cc(OC)c1CCN [Ψ-2C-O-21.5, 4-(2,2-difluoroethoxy)-2,6-dimethoxyphenethylamine] | 1 | 1.6 |  | 0.8 | 1.8 | 0.74 ± 0.08 | 31 ± 5 | > 7.5 | > 10 |  | > 8.8 | > 8.5 | 0.014 ± 0.003 | > 6 | 2 |  |  |  |  |
| COc1cc(OCC(F)(F)F)cc(OC)c1CCN [Ψ-2C-O-22, 2,6-dimethoxy-4-(2,2,2-trifluoroethoxy)phenethylamine] | 1.5 | 0.6 ± 0.06 |  | 4 | 3.7 | 3.4 | 41 ± 8 | > 7.5 | > 10 |  | > 8.8 | > 8.5 | 0.021 ± 0.002 | > 6 | 2 |  |  |  |  |
| COc1cc(OCc2ccccc2)cc(OC)c1CCN [Ψ-2C-O-27, 4-benzyloxy-2,6-dimethoxyphenethylamine] | 0.41 ± 0.02 | 0.008 ± 0.001 |  | 280 | 15 | 0.41 ± 0.16 | 42 ± 8 | > 7.5 | > 10 |  | 6.2 | 1.3 | 0.0031 ± 0.0002 | > 6 | 3.6 |  | < 7.5 | 1.3 to 1.8 |  |
| COc1cc(OC(F)F)cc(OC)c1CCN [Ψ-2C-O-35, 4-(2,2-difluoromethoxy)-2,6-dimethoxyphenethylamine] | 0.45 ± 0.07 | 0.072 ± 0.018 |  |  | 7.1 | 0.26 ± 0.2 | 16 ± 2 | > 7.5 | 0.3 ± 0.23 | 20 ± 13 | > 8.8 | > 8.5 | 0.051 ± 0.004 | > 6 | 2.1 |  |  |  | 3–4 fold |
| COc1cc(OC(F)F)cc(OC)c1CC(C)N (stereo not shown) [Ψ-DODFMO, 4-(2,2-difluoromethoxy)-2,6-dimethoxyamphetamine] | 2.3 | 0.084 ± 0.023 |  | 61 | 21 | 0.3 ± 0.1 | 54 ± 4 | > 7.5 | 0.16 ± 0.05 | 58 ± 23 | > 8.8 | > 8.5 | 0.14 ± 0.04 | > 6 | 5.9 |  |  |  | 3–4 fold |
